One data set concerns RPMI 8226. As to the kind of experiment: Cell growth inhibition (resazurin), RPMI 8226. The following applies: for cytotoxicity against RPMI 8226, in words: from EC50 values. In general terms: Resazurin is reduced to fluorescent resorufin, in cell work by metabolically active cells.
A further data set deals with NF-κB. As to the kind of experiment: NF-κB-mediated luciferase reporter gene assay, HEK293 NF-κB/Luc cells, TNF-α stimulation. In kind it is cell-based, human. The following applies: for effect on luciferase activity upon TNF-α stimulation, in words: pretreatment of NF-κB/Luc 293 cells. On the procedure: The HEK293 NF-κB/luciferase reporter cell line is a derivative of the human embryonic kidney cell line (ATCC; CRL-1573) and carries a luciferase reporter gene under the regulation of 5× NF-κB binding sites. […] When performing the luciferase assay, the DMEM basal medium was replaced with phenol-red free DMEM basal medium and the G418 was omitted.
For NF-κB-mediated luciferase assays, HEK293 NF-κB/luciferase cells were seeded at 1.5×10^4 cells/well in 90 μl phenol-red free DMEM complete medium into Corning 3917 white opaque-bottom tissue culture plates. For Formula II-2, Formula II-4, Formula II-5A, and Formula II-18, a 400 μM starting dilution was made in 100% DMSO and this dilution was used to generate a 8-point half log dilution series. […] For Formula II-20, a 2.5 mM or 8 mM starting solution was made in 100% DMSO and the final test concentrations ranged from 6.3 μM to 2.0 nM or 20 μM to 6.3 nM, respectively. The plates were returned to the incubator for 1 hour. After 1 hr pretreatment, 10 μl of a 50 ng/ml TNF-α solution, prepared in the phenol-red free DMEM medium was added, and the plates were incubated for an additional 6 hr.
At the end of the TNF-α stimulation, 100 μl of Steady Lite HTS luciferase reagent (Packard Bioscience) was added to each well and the plates were left undisturbed for 10 min at room temperature before measuring the luciferase activity. The relative luciferase units (RLU) were measured by using a Fusion microplate fluorometer (Packard Bioscience).
In general terms: In a reporter assay the amount or activity of a reporter protein is the signal.

Data set [1] has as its target T1, chymotrypsin-like activity of purified rabbit muscle 20S proteasome (Oryctolagus cuniculus, UniProt G1T4Q9).
T1 sequence (G1T4Q9 1-263): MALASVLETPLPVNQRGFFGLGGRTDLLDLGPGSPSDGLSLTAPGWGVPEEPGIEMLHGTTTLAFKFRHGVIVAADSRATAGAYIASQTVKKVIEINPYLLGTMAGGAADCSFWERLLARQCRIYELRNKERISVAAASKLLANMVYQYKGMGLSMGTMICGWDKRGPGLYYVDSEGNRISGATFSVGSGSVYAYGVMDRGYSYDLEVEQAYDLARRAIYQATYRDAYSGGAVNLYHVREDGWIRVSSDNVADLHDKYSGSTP
Put plainly: In vitro inhibition of 20S proteasome chymotrypsin-like activity (suc-LLVY-AMC).

For data set [2], the target named is T2, caspase-like activity of purified rabbit muscle 20S proteasome (Oryctolagus cuniculus, UniProt A0A5F9DQW2).
T2 sequence (A0A5F9DQW2 1-212): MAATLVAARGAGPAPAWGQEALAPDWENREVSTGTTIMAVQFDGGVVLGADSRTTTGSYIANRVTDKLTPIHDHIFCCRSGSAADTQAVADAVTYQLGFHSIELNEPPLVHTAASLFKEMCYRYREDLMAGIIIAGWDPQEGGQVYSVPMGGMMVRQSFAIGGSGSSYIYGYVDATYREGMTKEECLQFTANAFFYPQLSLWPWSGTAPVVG
As to the kind of experiment: In vitro inhibition of 20S proteasome caspase-like activity (Z-LLE-AMC).

Data set [3] concerns the target T3, trypsin-like activity of purified rabbit muscle 20S proteasome (Oryctolagus cuniculus, UniProt G1SWK8).
T3 sequence (G1SWK8 1-271): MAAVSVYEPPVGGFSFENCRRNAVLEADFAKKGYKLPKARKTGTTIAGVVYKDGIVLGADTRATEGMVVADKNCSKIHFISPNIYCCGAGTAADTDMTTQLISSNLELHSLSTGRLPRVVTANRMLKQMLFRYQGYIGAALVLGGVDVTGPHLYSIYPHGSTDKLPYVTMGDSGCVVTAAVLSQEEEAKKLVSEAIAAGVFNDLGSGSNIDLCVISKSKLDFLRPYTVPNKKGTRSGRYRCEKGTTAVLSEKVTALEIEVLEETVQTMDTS
Put plainly: In vitro inhibition of 20S proteasome trypsin-like activity (Boc-LRR-AMC).

Data set [4] concerns the target T3, trypsin-like activity of purified rabbit muscle 20S proteasome. As to the kind of experiment: biochemical.
The next data set relates to U266. Put plainly: Cell growth inhibition (resazurin), U266. The note with it: for EC50: 48 hours drug exposure; for cytotoxicity against U266, in words: from EC50 values.
For a further data set, the system named is NCI-H292. As to the kind of experiment: Cell growth inhibition (resazurin), NCI-H292. The following applies: Homo sapiens, NCI-H292, 48 h, read-out: EC50 against NCI-H292.
[5] abbreviates: Homo sapiens, RPMI-8226, 48 h, read-out: RPMI 8226 EC50, Table 2, 48 hours drug exposure, mean ± SD where n≥3.
[6] abbreviates: EC50 Chymotrypsin-like, Table 6, values in nM.
The mark [7] stands for this setting: EC50 values, chymotrypsin-like activity, summary of Table 6.
The mark [8] stands for this setting: EC50 Caspase-like, Table 6, values in μM.
Where [9] appears, read: Homo sapiens, U-266, 48 h, read-out: U266 EC50, Table 2.
Where [10] appears, read: read-out: RPMI 8226 EC50, Table 2, 48 hours drug exposure, mean ± SD where n≥3.
Where [11] appears, read: Homo sapiens, HEK293, read-out: EC50, NF-κB-mediated luciferase reporter gene assay, Table 5, values in μM, 1 hr pretreatment, TNF-α 6 hr.

Several values for one entry are separate records, joined by “and”; a condition that tells them apart may be missing. Equal entries are not always repeated. Where two headings read alike, the source gives them in different places.

The source of these data is patent publication US7544814B2, “[3.2.0] Heterocyclic compounds and methods of using the same” (Nereus Pharmaceuticals, Inc., priority 2004, dated 2009).

With `C[C@@]12OC(=O)[C@]1([C@@H](O)[C@@H]1C=CCCC1)NC(=O)[C@@H]2CCO` [Formula II-21], the EC50 in the data set on RPMI 8226 (setting [5]) is over 20 µM; in the data set with RPMI 8226 (Homo sapiens, RPMI-8226, read-out: Cytotoxicity RPMI EC50, Table 12), over 20 µM; with NF-κB (Homo sapiens, HEK293, Table 5, values printed in μM, 1 hr pretreatment, TNF-α 6 hr, read-out: EC50, NF-κB-mediated luciferase reporter gene assay), 3.2 µM; in the data set on NF-κB (Table 5, values in μM, 1 hr pretreatment, TNF-α 6 hr, read-out: EC50, NF-κB-mediated luciferase reporter gene assay) it was 2.7 µM; in the data set on NF-κB (Table 12, read-out: NF-κB EC50), 2.71 µM; in data set [1] (setting [6]) it was 8 nM. Also, the EC50 was 2 to 11 nM in data set [1] (setting [7]); 8 nM in data set [1] (Proteasome Chymotrypsin-like EC50, Table 12); 2.6 µM and 2.3 µM in data set [2] (setting [8]); 0.956 to 8.7 µM in data set [2] (EC50 values, caspase-like activity, range in mixed units, summary of Table 6, range from nM to μM); 2.58 µM and 2.33 µM in data set [2] (Proteasome Caspase-like EC50, Table 12); 879 nM in data set [3] (read-out: Proteasome Trypsin-like EC50, Table 12). Also, the EC50 was 0.879 µM in data set [4]; 6.09 µM in the data set with U266 (setting [9]); 9.67 µM in the data set with U266 (read-out: U266 EC50, Table 2). The “effect on luciferase activity upon TNF-α stimulation, in words” value (“effect” for short) in the data set on NF-κB is “dose-dependent decrease”. The “inhibition of the trypsin-like activity of the 20S proteasome, in words” value (shortened to “inhibition”) in data set [3] (under the conditions tested) was “able to inhibit”. The “cytotoxicity against U266, in words” value in the data set with U266 was “cytotoxic”.
Consider `CC[C@H]1C(=O)N[C@@]2([C@@H](O)C3CCCCC3)C(=O)O[C@@]12C` [Formula II-3], for which the EC50 with RPMI 8226 (setting [5]) was over 20 µM; in data set [1] (setting [6]), 964 nM; in data set [1] (setting [7]) it was 207 to 964 nM; in data set [2] (setting [8]), over 20 µM; in data set [4] it was 5.5 µM and 7.7 µM; with NCI-H292, over 20 µM. Also, the “inhibition” value in data set [3] is recorded as “able to inhibit”.
For the molecule `C[C@@]12OC(=O)[C@]1([C@@H](O)[C@@H]1C=CCCC1)NC(=O)[C@@H]2CCN=[N+]=[N-]` [Formula II-29], the EC50 was 4.28 µM with RPMI 8226 (setting [5]); 6.94 µM in the data set with RPMI 8226 (setting [10]); 1.2 µM with NF-κB (setting [11]); 1.4 µM in the data set on NF-κB (read-out: EC50, NF-κB-mediated luciferase reporter gene assay, Table 5, values in μM, 1 hr pretreatment, TNF-α 6 hr); 6 nM and 8 nM in data set [1] (setting [6]); 2 to 11 nM in data set [1] (setting [7]). Further, the concentration for a half-maximal effect (EC50) in data set [2] (EC50 Caspase-like, Table 6, values in nM) was 0.535 µM and 0.52 µM; in data set [2] (EC50 values, caspase-like activity, summary of Table 6) it was 0.213 to 0.85 µM; in data set [4], 0.175 µM and 0.254 µM. For the same molecule, the “cytotoxicity against RPMI 8226, in words” value in the data set with RPMI 8226 is recorded as “cytotoxic”. Moreover, the “effect” value with NF-κB is “dose-dependent decrease”. Moreover, the “inhibition” value in data set [3] (under the conditions tested) is reported as “able to inhibit”. In the data set on U266, the “cytotoxicity against U266, in words” value was “cytotoxic”.
For the molecule `CC[C@@]12OC(=O)[C@]1([C@@H](O)[C@@H]1C=CCCC1)NC(=O)[C@@H]2CCCl` [Formula II-24C], the EC50 was 2.32 µM in the data set with RPMI 8226 (setting [5]); 1.64 µM with RPMI 8226 (setting [10]); 5.3 µM in the data set on NF-κB (setting [11]); 2000 nM in data set [1] (EC50 Chymotrypsin-like, Table 6, values in μM); 1400 to 10600 nM in data set [1] (EC50 values, chymotrypsin-like activity, range or bound stated in text, summary of Table 6); over 20 µM in data set [2] (setting [8]). The EC50 in data set [4] was 3.3 µM and 3.1 µM; with U266 (setting [9]) it was 1.15 µM; in the data set on U266 (read-out: U266 EC50, Table 2), 0.825 µM. For the same molecule, the “cytotoxicity against RPMI 8226, in words” value in the data set with RPMI 8226 was “cytotoxic”. Further, the “effect” value in the data set on NF-κB is given as “dose-dependent decrease”. Further, the “inhibition” value in data set [3] (under the conditions tested) is “able to inhibit”. Also, in the data set on U266, the “cytotoxicity against U266, in words” value is given as “cytotoxic”.

Broadly, the EC50 is the concentration at which the effect is half-maximal.
